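96-well plates; 48 h exposure; 5 concentrations. Endpoints by linear interpolation between flanking doses. Not reached: highest tested concentration assigned. GI50 is the concentration that inhibits growth by half.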 Activity calls are given as the source filed them. Cut-off read from the data, not from the text of the source: active = GI50 up to about 1.1 µM and inactive = higher.
Assays:
Assay in all cases: NCI anticancer screen, dose series, 48 h
SK-MEL-2 = tested on: SK-MEL-2
KM12 = tested on: KM12
XF498 = tested on: XF498
M19-MEL = tested on: M19-MEL
RXF 393 = tested on: RXF 393
SF-295 = tested on: SF-295
SF-268 = tested on: SF-268
KM-20L2 = tested on: KM-20L2
DMS-114 = tested on: DMS-114
HOP-62 = tested on: HOP-62
MOLT-4 = tested on: MOLT-4
CAKI-1 = tested on: CAKI-1
LXFL 529 = tested on: LXFL 529
SNB-75 = tested on: SNB-75
HCC 2998 = tested on: HCC 2998
A498 = tested on: A498
OVCAR-3 = tested on: OVCAR-3
SNB-78 = tested on: SNB-78
SF-539 = tested on: SF-539
TK-10 = tested on: TK-10
Malme-3M = tested on: Malme-3M
SN12C = tested on: SN12C
NCI-H460 = tested on: NCI-H460
SK-OV-3 = tested on: SK-OV-3
RPMI-8226 = tested on: RPMI-8226
A549 = tested on: A549
OVCAR-4 = tested on: OVCAR-4
SK-MEL-5 = tested on: SK-MEL-5
EKVX = tested on: EKVX
NCI-H226 = tested on: NCI-H226
SNB-19 = tested on: SNB-19
HCT-116 = tested on: HCT-116
DLD-1 = tested on: DLD-1
UO-31 = tested on: UO-31
SW-620 = tested on: SW-620
LOX IMVI = tested on: LOX IMVI
786-0 = tested on: 786-0
DMS-273 = tested on: DMS-273
NCI-H23 = tested on: NCI-H23
HT-29 = tested on: HT-29
UACC-62 = tested on: UACC-62
NCI-H522 = tested on: NCI-H522
M14 = tested on: M14
HOP-92 = tested on: HOP-92
COLO 205 = tested on: COLO 205
HCT-15 = tested on: HCT-15
OVCAR-5 = tested on: OVCAR-5
OVCAR-8 = tested on: OVCAR-8
K562 = tested on: K562
UACC-257 = tested on: UACC-257
ACHN = tested on: ACHN
U-251 = tested on: U-251
SK-MEL-28 = tested on: SK-MEL-28
CCRF-CEM = tested on: CCRF-CEM
IGROV-1 = tested on: IGROV-1
HOP-18 = tested on: HOP-18
HL-60 = tested on: HL-60
SR = tested on: SR

Measured: GI50

CC(=O)NC(CCCN)C(=O)NCc1ccccc1 (stereo not given)
inactive: SK-MEL-2 > 100 µM | KM12 > 100 µM | XF498 > 100 µM | M19-MEL > 100 µM | RXF 393 > 100 µM | SF-295 > 100 µM | SF-268 > 100 µM | KM-20L2 > 100 µM | DMS-114 > 100 µM | HOP-62 > 100 µM | MOLT-4 > 100 µM | CAKI-1 > 100 µM | LXFL 529 > 100 µM | SNB-75 > 100 µM | HCC 2998 > 100 µM | A498 > 100 µM | OVCAR-3 > 100 µM | SNB-78 > 100 µM | SF-539 > 100 µM | TK-10 > 100 µM | Malme-3M > 100 µM | SN12C > 100 µM | NCI-H460 > 100 µM | SK-OV-3 > 100 µM | RPMI-8226 > 100 µM | A549 > 100 µM | OVCAR-4 > 100 µM | SK-MEL-5 > 100 µM | EKVX > 100 µM | NCI-H226 > 100 µM | SNB-19 > 100 µM | HCT-116 > 100 µM | DLD-1 > 100 µM | UO-31 > 100 µM | SW-620 > 100 µM | LOX IMVI > 100 µM | 786-0 > 100 µM | DMS-273 > 100 µM | NCI-H23 > 100 µM | HT-29 > 100 µM | UACC-62 > 100 µM | NCI-H522 > 100 µM | M14 > 100 µM | HOP-92 > 100 µM | COLO 205 > 100 µM | OVCAR-5 > 100 µM | OVCAR-8 > 100 µM | K562 > 100 µM | UACC-257 > 100 µM | ACHN > 100 µM | U-251 > 100 µM | SK-MEL-28 > 100 µM | CCRF-CEM > 100 µM | IGROV-1 > 100 µM
> 100 µM: HCT-15

[O-][S+](Cc1ccccn1)c1nc2ccccc2nc1-c1ccccc1 (stereo not given)
inactive: XF498 17.5 µM | SF-295 27.9 µM | SF-268 66.1 µM | DMS-114 28.2 µM | MOLT-4 38.3 µM | LXFL 529 31.9 µM | SNB-75 26.3 µM | OVCAR-3 44.9 µM | SNB-78 21.2 µM | Malme-3M 33.1 µM | SN12C 35.3 µM | SK-OV-3 55.7 µM | RPMI-8226 19.9 µM | A549 47.2 µM | OVCAR-4 26.9 µM | EKVX 30.7 µM | NCI-H226 18.9 µM | SNB-19 62.4 µM | HCT-116 33.4 µM | UO-31 37.7 µM | HOP-18 80.4 µM | 786-0 47.2 µM | DMS-273 26.1 µM | HL-60 20.8 µM | NCI-H23 34.8 µM | HT-29 44.4 µM | M14 36 µM | HOP-92 28.3 µM | COLO 205 18.8 µM | OVCAR-8 26.5 µM | K562 31.3 µM | UACC-257 33.1 µM | ACHN 48.1 µM | U-251 41.5 µM | SK-MEL-28 53.8 µM | CCRF-CEM 38.6 µM | IGROV-1 36 µM

CSc1nc2c(nc(N)n2C2OC(CO)C(O)C(O)C2O)c(=O)n1C (stereo not given)
inactive: KM12 > 100 µM | XF498 > 100 µM | M19-MEL > 100 µM | RXF 393 > 100 µM | SF-295 > 100 µM | SF-268 > 100 µM | KM-20L2 > 100 µM | DMS-114 > 100 µM | HOP-62 > 100 µM | MOLT-4 > 100 µM | CAKI-1 > 100 µM | LXFL 529 > 100 µM | SNB-75 > 100 µM | HCC 2998 > 100 µM | A498 > 100 µM | OVCAR-3 > 100 µM | SNB-78 > 100 µM | SF-539 > 100 µM | TK-10 > 100 µM | Malme-3M > 100 µM | SN12C > 100 µM | NCI-H460 > 100 µM | SK-OV-3 > 100 µM | A549 > 100 µM | OVCAR-4 > 100 µM | SK-MEL-5 > 100 µM | EKVX > 100 µM | NCI-H226 > 100 µM | SNB-19 > 100 µM | HCT-116 > 100 µM | DLD-1 > 100 µM | UO-31 > 100 µM | SW-620 > 100 µM | LOX IMVI > 100 µM | HOP-18 > 100 µM | 786-0 > 100 µM | HL-60 > 100 µM | NCI-H23 > 100 µM | HT-29 > 100 µM | UACC-62 > 100 µM | NCI-H522 > 100 µM | M14 > 100 µM | HOP-92 > 100 µM | COLO 205 > 100 µM | SR > 100 µM | OVCAR-8 > 100 µM | K562 > 100 µM | UACC-257 > 100 µM | ACHN > 100 µM | U-251 > 100 µM | SK-MEL-28 > 100 µM | CCRF-CEM > 100 µM | IGROV-1 > 100 µM

Reference: ChEMBL document CHEMBL1201862, “PubChem BioAssay data set” (2004)
